From patent US4931450A, “Amino acid derivatives” (Novo Industri A/S, priority 1986, dated 1990)
Structures can show the parent of a compound that is named as a salt. Where two headings read alike, the source gives them in different places.

Columns and labels:
GABA-uptake = test: In vitro GABA-uptake inhibition, essentially as described by Fjalland, 3H-GABA as substrate; format: biochemical
Description: GABA-uptake inhibition was measured essentially as described by Fjalland (Acta Pharmacol. et. Toxicol. (1978), 42, 73-76) using 25 mM of 3H-GABA as a substrate.

[1] = tested on: DBA/2 mice (convulsions induced by loud noise; Rotarod); test: Rotarod test versus convulsions induced by loud noise in DBA/2 mice (ratio ED50 Rotarod/ED50 tonic convulsions); format: in vivo, male DBA/2 mice; settings: i.p., Rotarod test 25 min after injection, then 14 kHz tone at 111 dB for 30 sec
Description: The convulsions induced by loud noise in the DBA/2 strain of mice is regarded as a reliable model for evaluating anti-epileptic drug effects, cf. E. N. Petersen et al.: Psychopharmacol. 83 (1984), 240, and A. G. Chapman et al.: Arzmeim.Forsch. 10 (1984), 1261. The Rotarod and Traction tests were used to evaluate the sedative properties of the test drugs.
Male DBA/2 mice (8±1 g) were used in all experiments. The animals were pretrained on the Rotarod (6 rpm; rod diameter 2.5 cm) for 1 min. The compounds tested were injected intra-peritoneally. Twenty-five min, later the animals underwent a 2 min. test on the Rotarod. The number of failures to stay on the rod was counted. An error rate higher than 10 was assigned the maximum score of 10. Immediately after the Rotarod test, the animals were tested in a Traction test, cf. Psychopharmacol. above. In this test, the animal was required to maintain grasp on a thin rod (diameter 2.5 mm) with the forepaws for five sec. and, within this period of time, to show a traction response (grasping onto the rod with one of the hindlegs). The performance on the test was based on the absence or presence of the traction response with the 5 sec. test period. Finally, after the Traction test, the animals were individually placed in a chamber in which they were exposed for 30 sec. to a 14 kHz sinus tone at 111 dB. During this period of time, the following behaviours were noted: "wild running", clonic convulsions and death.
The compounds tested were dissolved in distilled water or suspended in 5% chremophore. The injection volume was 0.2 ml/mouse.
In table 2, below, the ratio ED50 Rotarod/ED50 tonic convulsions is given for the compounds tested. NO-05-0340 is R-N-(4-(2-methylphenyl)-4-(3-methyl-2-thienyl)but-3-en-1-yl)nipecotic acid and NO-05-0356 is R-N-(4-(N-methylpyrrol-2-yl)-4-phenylbut-3-en-1-yl)nipecotic acid.

GABA uptake = settings: orally active; cited from earlier work
[2] = 3H-GABA substrate, two separate experiments, 3-5 concentrations of test compound, read-out: IC50
[3] = R3 nipecotic acid, read-out: in vitro test value

IC50 (GABA-uptake; [2]) [nM]	Compound	other results
470	O=C(O)C1CCCN(CCC=C(c2ccccc2)c2cccs2)C1 (racemic) [reference compound]	IC50 (GABA-uptake; [3]): 470 nM
190	Cc1ccc(C(=CCCN2CCC[C@@H](C(=O)O)C2)c2sccc2C)c(C)c1 [Example 10, R-N-(4-(2,4-dimethylphenyl)-4-(3-methyl-2-thienyl)but-3-en-1-yl)nipecotic acid hydrochloride]	–
124	Cc1ccsc1C(=CCCN1CCC[C@@H](C(=O)O)C1)c1cccc(Cl)c1 (mixture of isomers)	–
56	COc1cccc(C(=CCCN2CCC[C@@H](C(=O)O)C2)c2sccc2C)c1 [Example 18]	–
104	Cc1ccsc1C(=CCCN1CCC[C@@H](C(=O)O)C1)c1cccc(Cl)c1C [Example 49]	–
–	O=C(O)C1CCCN(CCC=C(c2ccccc2)c2ccccc2)C1 (stereo not drawn) [SK&F 89976A, N-(4,4-diphenyl-3-butenyl)nipicotic acid, reference compound]	ratio ED50 Rotarod/ED50 tonic convulsions [1]: 5; GABA uptake inhibition, oral activity (GABA uptake): orally active inhibitors of GABA uptake
89	Cc1cc(Cl)ccc1C(=CCCN1CCC[C@@H](C(=O)O)C1)c1sccc1C [Example 16]	–
162	CCn1cccc1C(=CCCN1CCC=C(C(=O)O)C1)c1ccccc1 [Example 59]	–
49	CCn1cccc1C(=CCCN1CCC[C@@H](C(=O)O)C1)c1ccccc1C [Example 58]	–
85	CCCn1cccc1C(=CCCN1CCC[C@@H](C(=O)O)C1)c1ccccc1C [Example 14]	–
217	Cc1ccsc1C(=CCCN1CCC[C@@H](C(=O)O)C1)c1ccccc1F [Example 24]	–
–	O=C(O)C1CCCN(CCC=C(c2ccccc2)c2cccs2)C1 (stereo not drawn) [SK&F 100604J, N-(4-sphenyl-4-(2-thienyl)-3-butenyl)nipecotic acid]	GABA uptake inhibition, oral activity (GABA uptake): orally active inhibitors of GABA uptake
126	Cn1cccc1C(=CCCN1CCC=C(C(=O)O)C1)c1ccccc1 [NO-05-0387, N-(4-(N-Methylpyrrol-2-yl)-4-phenylbut-3-en-1-yl)guvacine hydrochloride]	–
148	Cc1cc(Cl)ccc1C(=CCCN1CCC[C@@H](C(=O)O)C1)c1cccn1C [Example 57]	–
117	Cc1ccccc1C(=CCCN1CCC=C(C(=O)O)C1)c1sccc1C [Example 15]	–
–	O=C(O)CC1CCN(CCC=C(c2ccccc2)c2ccccc2)C1 (stereo not drawn) [SK&F 100561, N-(4,4-diphenyl-3-butenyl)-β-homoproline, reference compound]	ratio ED50 Rotarod/ED50 tonic convulsions [1]: 7; GABA uptake inhibition, oral activity (GABA uptake): orally active inhibitors of GABA uptake
217	O=C(O)C1=CCCN(CCC=C(c2ccccc2)c2cccs2)C1 (mixture of isomers) [phenyl, thien-2-yl, guvacine, (E/Z), reference compound]	–
–	O=C(O)C1=CCCN(CCC=C(c2ccccc2)c2ccccc2)C1 [SK&F 100330A, N-(4,4-diphenyl-3-butenyl)guvacine]	GABA uptake inhibition, oral activity (GABA uptake): orally active inhibitors of GABA uptake
236	O=C(O)[C@@H]1CCCN(CCC=C(c2ccccc2)c2cccs2)C1 (mixture of isomers) [reference compound]	–

Compound	IC50 (GABA-uptake; [2]) [nM]	other results
Cl.Cn1cccc1C(=CCCN1CCC[C@@H](C(=O)O)C1)c1ccccc1 [NO-05-0356, R-N-(4-(N-Methylpyrrol-2-yl)-4-phenylbut-3-en-1-yl)nipecotic acid hydrochloride]	68	ratio ED50 Rotarod/ED50 tonic convulsions [1]: 21
Cc1ccccc1C(=CCCN1CCC[C@@H](C(=O)O)C1)c1sccc1C [NO-05-0340, R-N-(4-(2-Methylphenyl)-4-(3-methyl-2-thienyl)but-3-en-1-yl)nipecotic acid]	74	ratio ED50 Rotarod/ED50 tonic convulsions [1]: 8; IC50 (GABA-uptake; [3]): 74 nM
